pIC50: −log10 of the molar value.
Biological target: T1, CYP11A1 (Homo sapiens, UniProt P05108)
T1 construct: human H295R adrenocortical carcinoma cell line was used as source of enzyme; endogenous in cells; host or cells: H295R human adrenocortical carcinoma cells
T1 sequence (P05108 40-521): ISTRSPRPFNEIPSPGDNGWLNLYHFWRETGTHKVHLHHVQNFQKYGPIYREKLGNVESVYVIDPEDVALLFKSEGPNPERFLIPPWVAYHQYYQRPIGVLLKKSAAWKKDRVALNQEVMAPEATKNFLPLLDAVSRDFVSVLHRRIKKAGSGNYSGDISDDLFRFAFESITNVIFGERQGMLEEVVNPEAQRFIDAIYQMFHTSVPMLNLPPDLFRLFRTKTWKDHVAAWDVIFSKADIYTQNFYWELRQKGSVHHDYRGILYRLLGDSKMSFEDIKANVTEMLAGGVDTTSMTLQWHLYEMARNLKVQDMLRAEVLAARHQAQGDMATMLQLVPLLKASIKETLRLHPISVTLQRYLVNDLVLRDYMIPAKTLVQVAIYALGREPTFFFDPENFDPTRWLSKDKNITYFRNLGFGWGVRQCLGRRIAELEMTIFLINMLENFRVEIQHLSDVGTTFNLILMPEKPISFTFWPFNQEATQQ
Assay: CYP11A1 inhibition: modified isocaproic acid release assay (IARA) in H295R cells
Format: cell-based
Details: human H295R adrenocortical carcinoma cells treated three days, 3 nM [24,25-3H]-labelled cholesterol, 1% DMSO, 10 concentrations in duplicates; read-out: IC50 of the test compounds on CYP11A1 inhibition
Experimental: The ability of the test compounds to inhibit conversion of cholesterole to pregnenolone and isocaproic acid was measured by modification of isocaproic acid release assay (IARA) described by Ruangwises et. al. (Biology of Reproduction 1991; 45(1):143-50) except that human H295R adrenocortical carcinoma cell line was used as source of enzyme and extraction was done with dextran-coated charcoal suspension (Isomaa, V. et al., Endocrinology 1982; 111(3):833-843). […] To determine the half maximal inhibitory concentration (IC50) of the test compounds on CYP11A1 inhibition, the cells were treated for three days with increasing concentrations of the test compounds in the presence of 3 nM [24,25-3H]-labelled cholesterol (American Radiolabelled Chemicals). The final DMSO concentration was 1%. Cell culture medium was extracted with dextran-coated charcoal suspension and the radiolabelled isocaproic acid was determined by mixing 100 μl of supernatant fraction in 200 μl of scintillation fluid (OptiPhase SuperMix, Perkin Elmer). Radioactivity was measured using a Microbeta scintillation counter (1450 MicroBeta Trilux, Wallac). All the test compounds were studied at 10 concentrations in duplicates.

SMILES	pIC50
CCCCNC(=O)c1ccc(COc2coc(CN3Cc4ccccc4C3)cc2=O)cc1 [Compound 169, N-Butyl-4-(((6-(isoindolin-2-ylmethyl)-4-oxo-4H-pyran-3-yl)oxy)methyl)-benzamide]	6.52 to 6.82
CC(C)(C)OC(=O)N1CC[C@@H](COc2coc(CN3Cc4ccccc4C3)cc2=O)C1 [Compound 199, (R)-tert-Butyl 3-(((6-(isoindolin-2-ylmethyl)-4-oxo-4H-pyran-3-yl)oxy)methyl)-pyrrolidine-1-carboxylate]	6.52 to 6.82
CC(=O)OCC(=O)N1CCC(COc2coc(CN3Cc4ccccc4C3)cc2=O)CC1 [Compound 257, 2-(4-(((6-(Isoindolin-2-ylmethyl)-4-oxo-4H-pyran-3-yl)oxy)methyl)piperidin-1-yl)-2-oxoethyl acetate]	> 6.82
CC(C)(C)OC(=O)N1CCC[C@@H](COc2coc(CN3Cc4ccccc4C3)cc2=O)C1 [Compound 202, (R)-tert-Butyl 3-(((6-(isoindolin-2-ylmethyl)-4-oxo-4H-pyran-3-yl)oxy)methyl)-piperidine-1-carboxylate]	5.70 to 6.52
O=C(NCCCCO)c1ccc(COc2coc(CN3Cc4ccccc4C3)cc2=O)cc1 [Compound 145, N-(4-Hydroxybutyl)-4-(((6-(isoindolin-2-ylmethyl)-4-oxo-4H-pyran-3-yl)oxy)-methyl)benzamide]	5.70 to 6.52
N#Cc1ccc(COc2coc(CN3Cc4ccccc4C3)cc2=O)cc1 [Compound 45, 4-(((6-(Isoindolin-2-ylmethyl)-4-oxo-4H-pyran-3-yl)oxy)methyl)benzonitrile]	5.70 to 6.52
CC(F)(F)C(=O)N1CCC(COc2coc(CN3Cc4ccc(F)cc4C3)cc2=O)CC1 [Compound 223, 5-((1-(2,2-Difluoropropanoyl)piperidin-4-yl)methoxy)-2-((5-fluoroisoindolin-2-yl)methyl)-4H-pyran-4-one]	6.52 to 6.82
CS(=O)(=O)N1CCC(COc2coc(CN3Cc4ccccc4C3)cc2=O)C(O)C1 (stereo not shown) [Compound 193, 5-((3-Hydroxy-1-(methylsulfonyl)piperidin-4-yl)methoxy)-2-(isoindolin-2-yl-methyl)-4H-pyran-4-one]	5.70 to 6.52
O=C(c1ccc(COc2coc(CN3CCc4ccccc4C3)cc2=O)cc1)N1CCCC(O)C1 (stereo not shown) [Compound 149, 2-((3,4-Dihydroisoquinolin-2(1H)-yl)methyl)-5-((4-(3-hydroxypiperidine-1-carbonyl)benzyl)oxy)-4H-pyran-4-one]	5.70 to 6.52
O=c1cc(CN2Cc3ccccc3C2)occ1OCc1ccc(S(=O)(=O)N2CCCC2)cc1 [Compound 5, 2-(Isoindolin-2-ylmethyl)-5-((4-(pyrrolidin-1-ylsulfonyl)benzyl)oxy)-4H-pyran-4-one]	> 6.82
CNC(=S)N1CCC(COc2coc(CN3Cc4ccccc4C3)cc2=O)CC1 [Compound 250, 4-(((6-(Isoindolin-2-ylmethyl)-4-oxo-4H-pyran-3-yl)oxy)methyl)-N-methyl-piperidine-1-carbothioamide]	6.52 to 6.82
O=C(C1CC1)N1CCC(COc2coc(CN3Cc4ccccc4C3)cc2=O)CC1 [Compound 226, 5-((1-(Cyclopropanecarbonyl)piperidin-4-yl)methoxy)-2-(isoindolin-2-ylmethyl)-4H-pyran-4-one]	> 6.82
CN(C)C(=O)c1ccc(COc2coc(CN3CCc4ccccc4C3)cc2=O)cc1F [Compound 78, 4-(((6-((3,4-Dihydroisoquinolin-2(1H)-yl)methyl)-4-oxo-4H-pyran-3-yl)oxy)-methyl)-2-fluoro-N,N-dimethylbenzamide]	5.70 to 6.52
O=C(NCCCO)c1ccc(COc2coc(CN3Cc4ccccc4C3)cc2=O)cc1 [Compound 282, N-(3-Hydroxypropyl)-4-(((6-(isoindolin-2-ylmethyl)-4-oxo-4H-pyran-3-yl)oxy)methyl)benzamide]	5.70 to 6.52
O=c1cc(CN2Cc3ccccc3C2)occ1OCC1CCSCC1 [Compound 196, 2-(Isoindolin-2-ylmethyl)-5-((tetrahydro-2H-thiopyran-4-yl)methoxy)-4H-pyran-4-one]	> 6.82
CC(=O)N(C)S(=O)(=O)c1ccc(COc2coc(CN3Cc4ccccc4C3)cc2=O)cc1 [Compound 70, N-((4-(((6-(Isoindolin-2-ylmethyl)-4-oxo-4H-pyran-3-yl)oxy)methyl)phenyl)-sulfonyl)-N-methylacetamide]	> 6.82

Results, then the compound that gave them:

pIC50	SMILES
6.52 to 6.82	CC(C)S(=O)(=O)N1CCC(COc2coc(CN3Cc4ccccc4C3)cc2=O)CC1 [Compound 270, 2-(Isoindolin-2-ylmethyl)-5-((1-(isopropylsulfonyl)piperidin-4-yl)methoxy)-4H-pyran-4-one]
6.52 to 6.82	CS(=O)(=O)N1CCC(CCOc2coc(CN3Cc4ccccc4C3)cc2=O)CC1 [Compound 198, 2-(Isoindolin-2-ylmethyl)-5-(2-(1-(methylsulfonyl)piperidin-4-yl)ethoxy)-4H-pyran-4-one]
6.52 to 6.82	CS(=O)(=O)N[C@@H]1CC[C@H](COc2coc(CN3Cc4ccccc4C3)cc2=O)C1 (relative stereo) [Compound 276, Cis-N-(3-(((6-(Isoindolin-2-ylmethyl)-4-oxo-4H-pyran-3-yl)oxy)methyl)-cyclo-pentyl)-methanesulfonamide]
5.70 to 6.52	CC1(C)c2ccccc2CN1Cc1cc(=O)c(OCC2CCN(S(C)(=O)=O)CC2)co1 [Compound 212, 2-((1,1-Dimethylisoindolin-2-yl)methyl)-5-((1-(methylsulfonyl)piperidin-4-yl)-methoxy)-4H-pyran-4-one]
5.70 to 6.52	CC(C)(O)c1ccc(COc2coc(CN3Cc4cccc(F)c4C3)cc2=O)cc1 [Compound 33, 2-((4-Fluoroisoindolin-2-yl)methyl)-5-((4-(2-hydroxypropan-2-yl)benzyl)oxy)-4H-pyran-4-one]
6.52 to 6.82	CCN=S(C)(=O)c1ccc(COc2coc(CN3Cc4ccccc4C3)cc2=O)cc1 (stereo not shown) [Compound 97, 5-((4-(N-Ethyl-S-methylsulfonimidoyl)benzyl)oxy)-2-(isoindolin-2-ylmethyl)-4H-pyran-4-one]
6.52 to 6.82	CNC(=O)N1CCC(COc2coc(CN3Cc4ccccc4C3)cc2=O)CC1 [Compound 228, 4-(((6-(Isoindolin-2-ylmethyl)-4-oxo-4H-pyran-3-yl)oxy)methyl)-N-methyl-piperidine-1-carboxamide]
6.52 to 6.82	CS(=O)(=O)N1CC=C(COc2coc(CN3Cc4ccccc4C3)cc2=O)CC1 [Compound 98, 2-(Isoindolin-2-ylmethyl)-5-((1-(methylsulfonyl)-1,2,3,6-tetrahydropyridin-4-yl)methoxy)-4H-pyran-4-one]
6.52 to 6.82	CC(C)(C)OC(=O)N1CC[C@H](COc2coc(CN3Cc4ccccc4C3)cc2=O)C1 [Compound 200, (S)-tert-Butyl 3-(((6-(isoindolin-2-ylmethyl)-4-oxo-4H-pyran-3-yl)oxy)methyl)-pyrrolidine-1-carboxylate]
> 6.82	O=C(c1ccc(COc2coc(CN3Cc4ccc(Br)cc4C3)cc2=O)cc1)N1CCCC1 [Compound 130, 2-((5-Bromoisoindolin-2-yl)methyl)-5-((4-(pyrrolidine-1-carbonyl)benzyl)oxy)-4H-pyran-4-one]
6.52 to 6.82	CN(C)C(=O)c1ccc(COc2coc(CN3CCc4cc(F)ccc4C3)cc2=O)cc1 [Compound 124, 4-(((6-((6-Fluoro-3,4-dihydroisoquinolin-2(1H)-yl)methyl)-4-oxo-4H-pyran-3-yl)oxy)methyl)-N,N-dimethylbenzamide]
6.52 to 6.82	NC(=O)c1ccc(COc2coc(CN3Cc4ccccc4C3)cc2=O)c(F)c1 [Compound 56, 3-Fluoro-4-(((6-(isoindolin-2-ylmethyl)-4-oxo-4H-pyran-3-yl)oxy)methyl)-benzamide]
6.52 to 6.82	O=c1cc(CN2Cc3ccccc3C2)occ1OCc1ccc(S(=O)(=O)C2COC2)cc1 [Compound 233, 2-(Isoindolin-2-ylmethyl)-5-((4-(oxetan-3-ylsulfonyl)benzyl)oxy)-4H-pyran-4-one]
6.52 to 6.82	CN(C)C(=O)N1CCC(COc2coc(CN3Cc4ccc(F)cc4C3)cc2=O)CC1 [Compound 181, 4-(((6-((5-Fluoroisoindolin-2-yl)methyl)-4-oxo-4H-pyran-3-yl)oxy)methyl)-N,N-dimethylpiperidine-1-carboxamide]
> 6.82	CS(C)(=O)=NC(=O)c1ccc(COc2coc(CN3Cc4ccc(F)cc4C3)cc2=O)cc1 [Compound 84, N-[Dimethyl(oxido)-λ^6-sulfanylidene]-4-[({6-[(5-fluoro-1,3-dihydro-2H-iso-indol-2-yl)methyl]-4-oxo-4H-pyran-3-yl}oxy)methyl]benzamide]
